Experimental data from US12419862B2, “Use of a cathepsin s inhibitor against the formation of anti-drug antibodies” (Hoffmann-La Roche Inc., priority 2018, dated 2025).
“Also recorded” adds a separate entry of the source.

Experiments:
[1] = test system: CEA-specific IgG response; assay: ADA against CEA-IL2v in wild-type mice over time, ELISA (Example 4, 63 days); assay type: in vivo, C57BL/6 wild type mice; conditions: 40 mg/kg/day via food admix, primary and memory response, samples to day 63, vs vehicle
Method: 15-week-old mice C57BL/6-Tg (hIgG1,k,l) and C57BL/6 wild type mixed gender were purchased from Taconic (Denmark) and housed at the animal facilities in room with air-conditioned under a 12 hours light/dark cycle in macrolon boxes with enriched environment and free access to water and food. 7×10 μg of CEA-IL2v (Batch no GLI0144-01) were injected at day 0, 4, 7, 11, 14, 18 and 21 for the primary response, and at day 49, 53, 56 and 60 for the memory response. The CEA-112v injections were done subcutaneously in the right flank or the left flank alternatively. The dosage of (2S,4R)-4-[4-(1-methyl-1H-pyrazol-4-yl)-2-trifluoromethyl-benzenesulfonyl]-1-(1-trifluoromethyl-cyclopropanecarbonyl)-pyrrolidine-2-carboxylic acid (1-cyano-cyclopropyl)-amide consumption was 40 mg/kg/day. […]
(§1) Nunc Maxisorp flat-bottom 96 well ELISA plates were coated with 100 μl per well of Humira or CEA-PGLALA respectively at 5 μg/mL in NaHCO3100 mM buffer overnight at +4° C. […] 100 μl of substrate P-nitrophenyl phosphate ready to use (Life Technologies, Cat no 002212) were added per well and after 10 min incubation at room temperature, the OD at 405 nm was read as an end-point measurement with a Versamax ELISA reader.

[2] = test system: adalimumab-specific IgG response; assay: ADA against adalimumab in hIgG1 Tg mice, ELISA (Example 1, 28 days); assay type: in vivo, C57BL/6-Tg (hIgG1,k,l) mice; conditions: 40 mg/kg/day via food admix from one day before first immunization until day 28, vs vehicle
From the text: (§2) For immunogenicity assessment, we used the previously described human IgG1 immune-tolerant mouse model (Bessa, Boeckle et al. Pharm Res 2015, 32(7): 2344-2359). Since this human IgG transgenic mouse is tolerant to a broad range of human IgG1 antibodies (Abs), ADA responses elicited in this system are taken to reflect intrinsic immunogenic attributes of the eliciting Ab compounds also expected to cause ADA in humans.
(§3) 15-week-old mice C57BL/6 wild type and C57BL/6-Tg (hIgG1,k,l) were purchased from Taconic (Denmark) and housed at the animal facilities under a 12 hour (h) light 12 h dark cycle with cycles of air ventilation and free access to water and food. 7×10 μg of CEA-112v or 7×10 μg of Humira (Adalimumab, Abbvie Germany GmbH) were injected respectively at day 0, 4, 7, 11, 14, 18 and 21 subcutaneously in the right flank or the left flank alternatively. The dosage of the cathepsin S inhibitor consumption was 40 mg/kg/day. […]
as §1, with “CEA-PGLALA (3.42 mg/ml, ID 8037)” for “CEA-PGLALA”, “Technologies” for “Technologies,”

[3] = test system: CEA-specific IgG response; assay: ADA against CEA-IL2v in hIgG1 Tg mice, ELISA (Example 1, 28 days); assay type: in vivo, C57BL/6-Tg (hIgG1,k,l) mice; conditions: 40 mg/kg/day via food admix from one week before first immunization until day 28, vs vehicle
From the text: as §2, §3
as §1, with “CEA-PGLALA (3.42 mg/ml, ID 8037)” for “CEA-PGLALA”, “Technologies” for “Technologies,”

Cn1cc(-c2ccc(S(=O)(=O)[C@@H]3C[C@@H](C(=O)NC4(C#N)CC4)N(C(=O)C4(C(F)(F)F)CC4)C3)c(C(F)(F)F)c2)cn1 [cathepsin S inhibitor, (2S,4R)-4-[4-(1-methyl-1H-pyrazol-4-yl)-2-trifluoromethyl-benzenesulfonyl]-1-(1-trifluoromethyl-cyclopropanecarbonyl)-pyrrolidine-2-carboxylic acid (1-cyano-cyclopropyl)-amide]
ADA to CEA-IL2v (CEA-specific IgG) over time [1]: reduces its levels in wild-type mice
ADA to adalimumab (adalimumab-specific IgG) [2]: reduces ADA to adalimumab; also recorded: reduced ADA levels compared to vehicle treated animals
ADA to CEA-IL2v (CEA-specific IgG) [3]: prevents ADA to CEA-IL2v in hIgG transgenic mice; also recorded: complete abrogation of ADA to CEA-IL2v
